Source: ChEMBL document CHEMBL3994622, “Design and synthesis of new RAF kinase-inhibiting antiproliferative quinoline derivatives. Part 2: Diarylurea derivatives” (Eur J Med Chem, 2017)

Columns and labels:
Type in all cases: functional
[1] = test system: OVCAR-8; experiment: Growth inhibition of human OVCAR8 cells assessed as cell growth at 0.01 uM incubated for 48 hrs by sulforhodamine B assay relative to control; details: OVCAR-8, 48 h, read-out: Activity
[2] = test system: EKVX; experiment: Growth inhibition of human EKVX cells assessed as cell growth at 0.1 uM incubated for 48 hrs by sulforhodamine B assay relative to control; details: read-out: Activity
[3] = test system: U-251; experiment: Growth inhibition of human U251 cells assessed as cell growth at 0.1 uM incubated for 48 hrs by sulforhodamine B assay relative to control; details: U-251, 48 h, read-out: Activity
[4] = test system: Malme-3M; experiment: Growth inhibition of human MALME-3M cells assessed as cell growth at 0.1 uM incubated for 48 hrs by sulforhodamine B assay relative to control; details: read-out: Activity
[5] = test system: EKVX; experiment: Growth inhibition of human EKVX cells assessed as cell growth at 1 uM incubated for 48 hrs by sulforhodamine B assay relative to control; details: read-out: Activity
[6] = test system: Malme-3M; experiment: Growth inhibition of human MALME-3M cells assessed as cell growth at 1 uM incubated for 48 hrs by sulforhodamine B assay relative to control; details: read-out: Activity
[7] = test system: MDA-MB-435; experiment: Growth inhibition of human MDA-MB-435 cells assessed as cell growth at 1 uM incubated for 48 hrs by sulforhodamine B assay relative to control; details: MDA-MB-435, 48 h, read-out: Activity
[8] = test system: MOLT-4; experiment: Growth inhibition of human MOLT4 cells assessed as cell growth at 10 uM incubated for 48 hrs by sulforhodamine B assay relative to control; details: MOLT-4, 48 h, read-out: Activity
[9] = test system: HCT-15; experiment: Growth inhibition of human HCT15 cells assessed as cell growth at 10 uM incubated for 48 hrs by sulforhodamine B assay relative to control; details: HCT-15, 48 h, read-out: Activity
[10] = test system: SK-MEL-5; experiment: Growth inhibition of human SK-MEL-5 cells assessed as cell growth at 10 uM incubated for 48 hrs by sulforhodamine B assay relative to control; details: SK-MEL-5, 48 h, read-out: Activity
[11] = test system: PC-3; experiment: Growth inhibition of human PC3 cells assessed as cell growth at 10 uM incubated for 48 hrs by sulforhodamine B assay relative to control; details: PC-3, 48 h, read-out: Activity
[12] = test system: BT-549; experiment: Growth inhibition of human BT549 cells assessed as cell growth at 10 uM incubated for 48 hrs by sulforhodamine B assay relative to control; details: BT-549, 48 h, read-out: Activity
[13] = test system: COLO 205; experiment: Growth inhibition of human COLO205 cells assessed as cell growth at 100 uM incubated for 48 hrs by sulforhodamine B assay relative to control; details: COLO 205, 48 h, read-out: Activity
[14] = test system: SW-620; experiment: Growth inhibition of human SW620 cells assessed as cell growth at 100 uM incubated for 48 hrs by sulforhodamine B assay relative to control; details: SW-620, 48 h, read-out: Activity
[15] = test system: 786-0; experiment: Growth inhibition of human 786-0 cells assessed as cell growth at 100 uM incubated for 48 hrs by sulforhodamine B assay relative to control; details: 786-0, 48 h, read-out: Activity
[16] = test system: HL-60(TB); experiment: Growth inhibition of human HL-60(TB) cells assessed as cell growth at 0.003 uM incubated for 48 hrs by sulforhodamine B assay relative to control; details: HL-60, 48 h, read-out: Activity
[17] = test system: HT-29; experiment: Growth inhibition of human HT-29 cells assessed as cell growth at 0.003 uM incubated for 48 hrs by sulforhodamine B assay relative to control; details: HT-29, 48 h, read-out: Activity
[18] = test system: SN12C; experiment: Growth inhibition of human SN12C cells assessed as cell growth at 0.003 uM incubated for 48 hrs by sulforhodamine B assay relative to control; details: read-out: Activity
[19] = test system: Hs-578T; experiment: Growth inhibition of human Hs 578T cells assessed as cell growth at 0.003 uM incubated for 48 hrs by sulforhodamine B assay relative to control; details: read-out: Activity
[20] = test system: HCT-116; experiment: Growth inhibition of human HCT116 cells assessed as cell growth at 0.03 uM incubated for 48 hrs by sulforhodamine B assay relative to control; details: HCT-116, 48 h, read-out: Activity
[21] = test system: SF-295; experiment: Growth inhibition of human SF295 cells assessed as cell growth at 0.03 uM incubated for 48 hrs by sulforhodamine B assay relative to control; details: SF-295, 48 h, read-out: Activity
[22] = test system: A498; experiment: Growth inhibition of human A498 cells assessed as cell growth at 0.03 uM incubated for 48 hrs by sulforhodamine B assay relative to control; details: A498, 48 h, read-out: Activity
[23] = test system: HCC 2998; experiment: Growth inhibition of human HCC2998 cells assessed as cell growth at 0.3 uM incubated for 48 hrs by sulforhodamine B assay relative to control; details: HCC 2998, 48 h, read-out: Activity
[24] = test system: HCT-15; experiment: Growth inhibition of human HCT15 cells assessed as cell growth at 0.3 uM incubated for 48 hrs by sulforhodamine B assay relative to control; details: HCT-15, 48 h, read-out: Activity
[25] = test system: A498; experiment: Growth inhibition of human A498 cells assessed as cell growth at 0.3 uM incubated for 48 hrs by sulforhodamine B assay relative to control; details: A498, 48 h, read-out: Activity
[26] = test system: HCC 2998; experiment: Growth inhibition of human HCC2998 cells assessed as cell growth at 3 uM incubated for 48 hrs by sulforhodamine B assay relative to control; details: HCC 2998, 48 h, read-out: Activity
[27] = test system: HCT-15; experiment: Growth inhibition of human HCT15 cells assessed as cell growth at 3 uM incubated for 48 hrs by sulforhodamine B assay relative to control; details: HCT-15, 48 h, read-out: Activity
[28] = test system: KM12; experiment: Growth inhibition of human KM12 cells assessed as cell growth at 3 uM incubated for 48 hrs by sulforhodamine B assay relative to control; details: KM12, 48 h, read-out: Activity
[29] = test system: NCI-H226; experiment: Growth inhibition of human NCI-H226 cells assessed as cell growth at 30 uM incubated for 48 hrs by sulforhodamine B assay relative to control; details: NCI-H226, 48 h, read-out: Activity
[30] = test system: SK-MEL-28; experiment: Growth inhibition of human SK-MEL-28 cells assessed as cell growth at 30 uM incubated for 48 hrs by sulforhodamine B assay relative to control; details: SK-MEL-28, 48 h, read-out: Activity
[31] = test system: UACC-257; experiment: Growth inhibition of human UACC257 cells assessed as cell growth at 30 uM incubated for 48 hrs by sulforhodamine B assay relative to control; details: UACC-257, 48 h, read-out: Activity
[32] = test system: TK-10; experiment: Growth inhibition of human TK10 cells assessed as cell growth at 30 uM incubated for 48 hrs by sulforhodamine B assay relative to control; details: TK-10, 48 h, read-out: Activity
[33] = test system: MCF7; experiment: Growth inhibition of human MCF7 cells assessed as cell growth at 30 uM incubated for 48 hrs by sulforhodamine B assay relative to control; details: MCF7, 48 h, read-out: Activity
[34] = test system: T47D; experiment: Growth inhibition of human T47D cells assessed as cell growth at 30 uM incubated for 48 hrs by sulforhodamine B assay relative to control; details: read-out: Activity

Row | Structure (SMILES) | growth at 0.01 µM [1] | growth at 0.1 µM [2] | growth at 0.1 µM [3] | growth at 0.1 µM [4] | growth at 1 µM [5] | growth at 1 µM [6] | growth at 1 µM [7] | growth at 10 µM [8] | growth at 10 µM [9] | growth at 10 µM [10] | growth at 10 µM [11] | growth at 10 µM [12] | growth at 100 µM [13] | growth at 100 µM [14] | growth at 100 µM [15] | growth at 0.003 µM [16] | growth at 0.003 µM [17] | growth at 0.003 µM [18] | growth at 0.003 µM [19] | growth at 0.03 µM [20] | further results
1 | COc1cc2cc(Oc3ccc(NC(=O)Nc4cc(C(F)(F)F)cc(C(F)(F)F)c4)cc3)c(C)nc2cc1OC | 111% | 89% | 100% | 87% | 50% | 54% | 84% | -36% | -91% | -79% | -41% | -64% | -79% | -66% | -83% | – | – | – | – | – | –
2 | Cc1nc2cc(O)c(O)cc2cc1Oc1ccc(NC(=O)Nc2ccc(Cl)c(Cl)c2)cc1 | – | – | – | – | – | – | – | – | – | – | – | – | – | – | – | 102% | 103% | 100% | 93% | 89% | growth at 0.03 µM [21]: 90%; growth at 0.03 µM [22]: 75%; growth at 0.3 µM [23]: 97%; growth at 0.3 µM [24]: 101%; growth at 0.3 µM [25]: 80%; growth at 3 µM [26]: 96%; growth at 3 µM [27]: 62%; growth at 3 µM [28]: 95%; growth at 30 µM [29]: 9%; growth at 30 µM [30]: -3%; growth at 30 µM [31]: -20%; growth at 30 µM [32]: 23%; growth at 30 µM [33]: 1%; growth at 30 µM [34]: 10%
3 | COc1cc2cc(Oc3ccc(NC(=O)Nc4ccc(Cl)c(Cl)c4)cc3)c(C)nc2cc1OC | 101% | 93% | 93% | 105% | 81% | 109% | 85% | 7% | 19% | -9% | -28% | 5% | -100% | -68% | -66% | – | – | – | – | – | –
4 | COc1cc2cc(Oc3ccc(NC(=O)Nc4ccc(Cl)c(C(F)(F)F)c4)cc3)c(C)nc2cc1OC | – | – | – | – | – | – | – | – | – | – | – | – | – | – | – | 96% | 97% | 98% | 83% | 91% | growth at 0.03 µM [21]: 91%; growth at 0.03 µM [22]: 68%; growth at 0.3 µM [23]: 109%; growth at 0.3 µM [24]: 91%; growth at 0.3 µM [25]: 78%; growth at 3 µM [26]: 29%; growth at 3 µM [27]: 16%; growth at 3 µM [28]: 7%; growth at 30 µM [29]: -49%; growth at 30 µM [30]: -92%; growth at 30 µM [31]: -60%; growth at 30 µM [32]: -46%; growth at 30 µM [33]: -79%; growth at 30 µM [34]: -30%
